Measurements taken from PubChem BioAssay AID1963962 (Molecular Pharmacology Branch, DTP, NCI, 2024).

System: 967376-340-R-J2-PDC multicell spheroid viability
Experiment: Anticancer human tumor 967376-340-R-J2-PDC patient-derived colon adenocarcinoma cell line growth inhibition [PI3K]
Settings: for IC50: curve of first compound; for viability, T/C: stronger effect = lower value
In short: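 Spheroid viability read-out. Co-cultures contained the tumor line plus HUVEC and human MSCs. Each agent was paired with a PI3K inhibitor (inavolisib, alpelisib, duvelisib, copanlisib) across half-log dilutions starting at clinical Cmax, or at 10 microM when Cmax was unknown.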

[1] = second compound 0.0316 µM, first compound 0.000316 µM
[2] = second compound 0.0316 µM, first compound 0.001 µM
[3] = second compound 0.0316 µM, first compound 0.00316 µM
[4] = second compound 0.0316 µM, first compound 0.01 µM
[5] = second compound 0.0316 µM, first compound 0.0316 µM
[6] = second compound 0.0316 µM, first compound 0.1 µM
[7] = second compound 0.1 µM, first compound 0.000316 µM
[8] = second compound 0.1 µM, first compound 0.001 µM
[9] = second compound 0.1 µM, first compound 0.00316 µM
[10] = second compound 0.1 µM, first compound 0.01 µM
[11] = second compound 0.1 µM, first compound 0.0316 µM
[12] = second compound 0.1 µM, first compound 0.1 µM
[13] = second compound 0.316 µM, first compound 0.000316 µM
[14] = second compound 0.316 µM, first compound 0.001 µM
[15] = second compound 0.316 µM, first compound 0.00316 µM
[16] = second compound 0.316 µM, first compound 0.01 µM
[17] = second compound 0.316 µM, first compound 0.0316 µM
[18] = second compound 0.316 µM, first compound 0.1 µM
[19] = second compound 1 µM, first compound 0.000316 µM
[20] = second compound 1 µM, first compound 0.001 µM
[21] = second compound 1 µM, first compound 0.00316 µM
[22] = second compound 1 µM, first compound 0.01 µM
[23] = second compound 1 µM, first compound 0.0316 µM
[24] = second compound 1 µM, first compound 0.1 µM
[25] = second compound 3.16 µM, first compound 0.000316 µM
[26] = second compound 3.16 µM, first compound 0.001 µM
[27] = second compound 3.16 µM, first compound 0.00316 µM
[28] = second compound 3.16 µM, first compound 0.01 µM
[29] = second compound 3.16 µM, first compound 0.0316 µM
[30] = second compound 3.16 µM, first compound 0.1 µM
[31] = second compound 10 µM, first compound 0.000316 µM
[32] = second compound 10 µM, first compound 0.001 µM
[33] = second compound 10 µM, first compound 0.00316 µM
[34] = second compound 10 µM, first compound 0.01 µM
[35] = second compound 10 µM, first compound 0.0316 µM
[36] = second compound 10 µM, first compound 0.1 µM
[37] = second compound 0.0316 µM, first compound 0.316 µM
[38] = second compound 0.0316 µM, first compound 1 µM
[39] = second compound 0.0316 µM, first compound 3.16 µM
[40] = second compound 0.0316 µM, first compound 10 µM
[41] = second compound 0.1 µM, first compound 0.316 µM
[42] = second compound 0.1 µM, first compound 1 µM
[43] = second compound 0.1 µM, first compound 3.16 µM
[44] = second compound 0.1 µM, first compound 10 µM
[45] = second compound 0.316 µM, first compound 0.316 µM
[46] = second compound 0.316 µM, first compound 1 µM
[47] = second compound 0.316 µM, first compound 3.16 µM
[48] = second compound 0.316 µM, first compound 10 µM
[49] = second compound 1 µM, first compound 0.316 µM
[50] = second compound 1 µM, first compound 1 µM
[51] = second compound 1 µM, first compound 3.16 µM
[52] = second compound 1 µM, first compound 10 µM
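Note: spheroids exposed to agents for 7 days before read-out.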
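Throughout, for viability, T/C: luminescence used as surrogate of cell viability.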

In the case of `CC(C)n1nc(-c2ccc3oc(N)nc3c2)c2c(N)ncnc21` + Cc1nc(NC(=O)N2CCCC2C(N)=O)sc1-c1ccnc(C(C)(C)C(F)(F)F)c1, the IC50 (second compound 0.0316 µM) is reported as over 100 nM, the IC50 (second compound 0.1 µM) is reported as 91.3 nM and the IC50 (second compound 0.316 µM) is reported as 70.5 nM. For the same molecule, the IC50 (second compound 1 µM) was 55.1 nM, the IC50 (second compound 3.16 µM) was 22 nM and the IC50 (second compound 10 µM) was 5.87 nM. For the same molecule, the viability, T/C [1] was 90.8%, the viability, T/C [2] was 108% and the viability, T/C [3] was 96.5%. For the same molecule, the viability, T/C [4] was 109%, the viability, T/C [5] was 70.5% and the viability, T/C [6] was 53.4%. For the same molecule, the viability, T/C [7] was 84.1%, the viability, T/C [8] was 69.3% and the viability, T/C [9] was 88.7%. It also gave a viability, T/C [10] of 73%, a viability, T/C [11] of 70.8% and a viability, T/C [12] of 48.2%. For the same molecule, the viability, T/C [13] was 67.5%, the viability, T/C [14] was 79.3% and the viability, T/C [15] was 80.4%. The viability, T/C [16] was 72.3%, the viability, T/C [17] was 58.7% and the viability, T/C [18] was 46.2%. It also gave a viability, T/C [19] of 65.4%, a viability, T/C [20] of 64.5% and a viability, T/C [21] of 59.3%. It also gave a viability, T/C [22] of 59.7%, a viability, T/C [23] of 66% and a viability, T/C [24] of 36.2%. It also gave a viability, T/C [25] of 54.6%, a viability, T/C [26] of 58.2% and a viability, T/C [27] of 62.3%. It also gave a viability, T/C [28] of 53.7%, a viability, T/C [29] of 46.7% and a viability, T/C [30] of 32.2%. It also gave a viability, T/C [31] of 47.8%, a viability, T/C [32] of 54.2% and a viability, T/C [33] of 51.6%. For the same molecule, the viability, T/C [34] was 48.9%, the viability, T/C [35] was 41.3% and the viability, T/C [36] was 34.5%.
Work on `CC1(C)CCC(CN2CCN(c3ccc(C(=O)NS(=O)(=O)c4ccc(NCC5CCOCC5)c([N+](=O)[O-])c4)c(Oc4cnc5[nH]ccc5c4)c3)CC2)=C(c2ccc(Cl)cc2)C1` + CC(Nc1ncnc2nc[nH]c12)c1cc2cccc(Cl)c2c(=O)n1-c1ccccc1 yielded an IC50 (second compound 0.0316 µM) of over 10000 nM, an IC50 (second compound 0.1 µM) of over 10000 nM and an IC50 (second compound 0.316 µM) of over 10000 nM. For the same molecule, the IC50 (second compound 1 µM) was over 10000 nM, the IC50 (second compound 3.16 µM) was over 10000 nM and the IC50 (second compound 10 µM) was over 10000 nM. It also gave a viability, T/C [5] of 92%, a viability, T/C [6] of 83.4% and a viability, T/C [37] of 98.1%. The viability, T/C [38] was 83.8%, the viability, T/C [39] was 75.6% and the viability, T/C [40] was 92.2%. For the same molecule, the viability, T/C [11] was 95.1%, the viability, T/C [12] was 79.7% and the viability, T/C [41] was 82.7%. The viability, T/C [42] was 87.3%, the viability, T/C [43] was 86.3% and the viability, T/C [44] was 75.2%. The viability, T/C [17] was 102%, the viability, T/C [18] was 101% and the viability, T/C [45] was 83%. For the same molecule, the viability, T/C [46] was 83.1%, the viability, T/C [47] was 86.5% and the viability, T/C [48] was 71.6%. For the same molecule, the viability, T/C [23] was 88.5%, the viability, T/C [24] was 115% and the viability, T/C [49] was 116%. For the same molecule, the viability, T/C [50] was 87.8%, the viability, T/C [51] was 79% and the viability, T/C [52] was 74.1%. For the same molecule, the viability, T/C [29] was 90.4%, the viability, T/C [30] was 86% and the viability, T/C (second compound 3.16 µM, first compound 0.316 µM) was 67.6%. It also gave a viability, T/C (second compound 3.16 µM, first compound 1 µM) of 82.9%, a viability, T/C (second compound 3.16 µM, first compound 3.16 µM) of 79.1% and a viability, T/C (second compound 3.16 µM, first compound 10 µM) of 101%. The viability, T/C [35] was 55.1%, the viability, T/C [36] was 73.3% and the viability, T/C (second compound 10 µM, first compound 0.316 µM) was 83.4%. The viability, T/C (second compound 10 µM, first compound 1 µM) was 74.7%, the viability, T/C (second compound 10 µM, first compound 3.16 µM) was 68% and the viability, T/C (second compound 10 µM, first compound 10 µM) was 76.3%.
Work on `CC1(C)CCC(Nc2ncc(C(F)(F)F)c(-c3c[nH]c4c(P(C)(C)=O)c(C#N)ccc34)n2)CN1` (stereo not drawn) + CC(Nc1ccc2c(c1)OCCn1cc(N3C(=O)OCC3C(F)F)nc1-2)C(N)=O yielded an IC50 (second compound 0.00316 µM) of 6690 nM, an IC50 (second compound 0.01 µM) of over 10000 nM and an IC50 (second compound 0.0316 µM) of 6640 nM. It also gave an IC50 (second compound 0.1 µM) of 2270 nM, an IC50 (second compound 0.316 µM) of 3650 nM and an IC50 (second compound 1 µM) of 277 nM. It also gave a viability, T/C (second compound 0.00316 µM, first compound 0.0316 µM) of 92.7%, a viability, T/C (second compound 0.00316 µM, first compound 0.1 µM) of 69.1% and a viability, T/C (second compound 0.00316 µM, first compound 0.316 µM) of 68%. The viability, T/C (second compound 0.00316 µM, first compound 1 µM) was 64.7%, the viability, T/C (second compound 0.00316 µM, first compound 3.16 µM) was 57.6% and the viability, T/C (second compound 0.00316 µM, first compound 10 µM) was 44.3%. It also gave a viability, T/C (second compound 0.01 µM, first compound 0.0316 µM) of 79%, a viability, T/C (second compound 0.01 µM, first compound 0.1 µM) of 88.1% and a viability, T/C (second compound 0.01 µM, first compound 0.316 µM) of 64.8%. For the same molecule, the viability, T/C (second compound 0.01 µM, first compound 1 µM) was 53.2%, the viability, T/C (second compound 0.01 µM, first compound 3.16 µM) was 59.6% and the viability, T/C (second compound 0.01 µM, first compound 10 µM) was 49%. For the same molecule, the viability, T/C [5] was 58.4%, the viability, T/C [6] was 76.8% and the viability, T/C [37] was 63.3%. The viability, T/C [38] was 66.2%, the viability, T/C [39] was 54.1% and the viability, T/C [40] was 46.7%. For the same molecule, the viability, T/C [11] was 58.5%, the viability, T/C [12] was 74.1% and the viability, T/C [41] was 69.7%. It also gave a viability, T/C [42] of 54%, a viability, T/C [43] of 48.1% and a viability, T/C [44] of 25.6%. It also gave a viability, T/C [17] of 56.3%, a viability, T/C [18] of 67.3% and a viability, T/C [45] of 56.9%. For the same molecule, the viability, T/C [46] was 52.9%, the viability, T/C [47] was 54.9% and the viability, T/C [48] was 24.8%. It also gave a viability, T/C [23] of 53.6%, a viability, T/C [24] of 53.4% and a viability, T/C [49] of 43.5%. It also gave a viability, T/C [50] of 50.7%, a viability, T/C [51] of 36.1% and a viability, T/C [52] of 24.6%.
With `CC(C)n1nc(-c2ccc3oc(N)nc3c2)c2c(N)ncnc21` + CC(Nc1ncnc2nc[nH]c12)c1cc2cccc(Cl)c2c(=O)n1-c1ccccc1 the IC50 (second compound 0.0316 µM) was over 100 nM, the IC50 (second compound 0.1 µM) was over 100 nM and the IC50 (second compound 0.316 µM) was over 100 nM. It also gave an IC50 (second compound 1 µM) of over 100 nM, an IC50 (second compound 3.16 µM) of over 100 nM and an IC50 (second compound 10 µM) of over 100 nM. For the same molecule, the viability, T/C [1] was 109%, the viability, T/C [2] was 92.2% and the viability, T/C [3] was 96.6%. It also gave a viability, T/C [4] of 98.6%, a viability, T/C [5] of 97.5% and a viability, T/C [6] of 59.1%. The viability, T/C [7] was 90.1%, the viability, T/C [8] was 94.5% and the viability, T/C [9] was 90.6%. The viability, T/C [10] was 103%, the viability, T/C [11] was 80.8% and the viability, T/C [12] was 69.9%. It also gave a viability, T/C [13] of 113%, a viability, T/C [14] of 104% and a viability, T/C [15] of 99.9%. For the same molecule, the viability, T/C [16] was 98.5%, the viability, T/C [17] was 77% and the viability, T/C [18] was 54.7%. It also gave a viability, T/C [19] of 124%, a viability, T/C [20] of 97% and a viability, T/C [21] of 89.9%. For the same molecule, the viability, T/C [22] was 90.1%, the viability, T/C [23] was 71% and the viability, T/C [24] was 53%. It also gave a viability, T/C [25] of 101%, a viability, T/C [26] of 94.3% and a viability, T/C [27] of 93.9%. For the same molecule, the viability, T/C [28] was 80.4%, the viability, T/C [29] was 81.3% and the viability, T/C [30] was 62.2%. The viability, T/C [31] was 93%, the viability, T/C [32] was 81.4% and the viability, T/C [33] was 76.7%. The viability, T/C [34] was 88%, the viability, T/C [35] was 73.3% and the viability, T/C [36] was 61.3%.
